Holding throughout (test): NCI anticancer screen, dose series, 48 h
Experiment [1] has as its system 786-0.
Experiment [2] relates to CAKI-1.
In experiment [3] the test system is CCRF-CEM.
For experiment [4], the system named is HL-60.
Experiment [5] concerns HT-29.
Experiment [6] deals with IGROV-1.
Experiment [7] has as its system K562.
Experiment [8] has as its system MOLT-4.
In experiment [9] the test system is NCI-H226.
The subject of experiment [10] is NCI-H23.
In experiment [11] the test system is OVCAR-3.
Experiment [12] deals with OVCAR-4.
Experiment [13] has as its system OVCAR-8.
The subject of experiment [14] is RXF 393.
In experiment [15] the test system is SF-295.
Experiment [16] deals with SK-MEL-28.
For experiment [17], the system named is SK-MEL-5.
The subject of experiment [18] is SNB-19.
The subject of experiment [19] is SR.
For experiment [20], the system named is HCT-116.

Here are results for 11 compounds from ChEMBL document CHEMBL1201862, “PubChem BioAssay data set” (2004).

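Exposure lasted 48 hours, with cells grown in 96-well plates and compounds tested at five concentrations. The concentration for 50% growth inhibition is given as GI50.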 Active and inactive are the calls of the source. Cut-off read from the data, not from the text of the source: active = GI50 up to about 1.1 µM and inactive = higher.

For `CCN(CC)C(=S)N/N=C(\C)c1ccccc1O`, the GI50 in [1] was 26.2 µM (inactive); in [2], 18.4 µM (inactive); in experiment [3] it was 5 µM (inactive); in experiment [4] it was 22.6 µM (inactive); in experiment [5], 19.5 µM (inactive); in experiment [6], 24.5 µM (inactive). In addition, the GI50 in experiment [7] was 0.0568 µM (active); in experiment [8] it was 8.59 µM (inactive); in experiment [9], 20.7 µM (inactive); in experiment [10], 25 µM (inactive); in [11], 34.3 µM (inactive); in experiment [12] it was > 100 µM (inactive). In addition, the GI50 is 19.5 µM (inactive) in experiment [13]; 25.6 µM (inactive) in experiment [14]; 15.5 µM (inactive) in experiment [15]; 23.4 µM (inactive) in experiment [16]; 10.7 µM (inactive) in [17]; 20.8 µM (inactive) in [18]. Besides, the GI50 in experiment [19] is 8.13 µM (inactive).
As for `Cn1cnc2[nH]c(=O)[nH]c(=S)c21`, the GI50 in [1], in experiment [2], in experiment [3], in experiment [20], in [4] and in experiment [5] was > 100 µM (inactive) each time. In addition, the GI50 in experiment [6], in experiment [7], in [8], in experiment [9], in [10] and in experiment [11] was > 100 µM (inactive) in each case. In addition, the GI50 in experiment [12], in [13], in experiment [14], in experiment [15], in [17] and in experiment [18] was > 100 µM (inactive) each time. In addition, the GI50 in [19] was > 100 µM (inactive).
With `Nc1ccc(-c2nc3ccccc3s2)cc1C#Cc1ccccc1`, the GI50 in experiment [1] was 17.7 µM (inactive); in [2], 15.8 µM (inactive); in [3] it was 29.2 µM (inactive); in experiment [20] it was 14.4 µM (inactive); in experiment [4], 26.5 µM (inactive); in [5] it was 19.6 µM (inactive). For the same compound, the GI50 in [6] was 10.7 µM (inactive); in experiment [7], 31 µM (inactive); in experiment [8], 32.5 µM (inactive); in [9], 20.1 µM (inactive); in [10], 20.9 µM (inactive); in [11] it was 15.5 µM (inactive). Also, the GI50 in [12] was 20.6 µM (inactive); in experiment [13] it was 19.8 µM (inactive); in experiment [14] it was 17.3 µM (inactive); in experiment [15], 21.2 µM (inactive); in experiment [17], 17 µM (inactive); in experiment [18], 22.3 µM (inactive). Moreover, in experiment [19], the GI50 is 37.5 µM (inactive).
Consider `Cc1nc(N)sc1/N=N/c1cc(Cl)c([N+](=O)[O-])cc1Cl`, for which the GI50 was 19.7 µM (inactive) in [1]; 27.4 µM (inactive) in experiment [2]; 11.8 µM (inactive) in [3]; 33.6 µM (inactive) in [20]; 22.9 µM (inactive) in experiment [4]; 12.4 µM (inactive) in experiment [5]. For the same compound, the GI50 in experiment [6] was 20.1 µM (inactive); in experiment [7], 13.1 µM (inactive); in [8], 8.24 µM (inactive); in experiment [9], 14 µM (inactive); in experiment [11], 15.6 µM (inactive); in experiment [13], 14.6 µM (inactive). The GI50 in [14] was 34.4 µM (inactive); in [15], 23.9 µM (inactive); in experiment [16], 10.7 µM (inactive); in experiment [17] it was 4.22 µM (inactive); in experiment [18] it was 29.1 µM (inactive); in experiment [19], 13.6 µM (inactive).
In the case of `O=C1C(c2ccccc2)=C(c2ccccc2)C(c2ccc(Cc3ccc(C4=C(c5ccccc5)C(=O)C(c5ccccc5)=C4c4ccccc4)cc3)cc2)=C1c1ccccc1`, the GI50 in experiment [1], in experiment [2], in experiment [3], in [20], in experiment [4] and in [5] was > 100 µM (inactive) each time. Besides, the GI50 in experiment [6] was > 100 µM (inactive); in experiment [7], > 100 µM (inactive); in experiment [8] it was > 100 µM (inactive); in experiment [9] it was 50.6 µM (inactive); in experiment [10], > 100 µM (inactive); in experiment [11], > 100 µM (inactive). Further, the GI50 in experiment [12] is > 100 µM (inactive); in [13], > 100 µM (inactive); in experiment [14] it was > 100 µM (inactive); in experiment [15], 69.5 µM (inactive); in [17] it was > 100 µM (inactive); in experiment [18], > 100 µM (inactive). For the same compound, the GI50 in [19] is > 100 µM (inactive).
Turning to `COc1c(C)c(OCC=C(C)C)cc(CO)c1CO`, the GI50 was 7.23 µM (inactive) in experiment [1]; 46.8 µM (inactive) in [2]; 44.9 µM (inactive) in experiment [3]; 32.6 µM (inactive) in [20]; 47.5 µM (inactive) in experiment [4]; 54.5 µM (inactive) in [5]. Moreover, the GI50 is 38.2 µM (inactive) in [6]; 26.3 µM (inactive) in experiment [7]; 26.7 µM (inactive) in experiment [8]; 87.3 µM (inactive) in experiment [9]; 38.7 µM (inactive) in experiment [10]; 35.6 µM (inactive) in [12]. Further, the GI50 in [13] is 36 µM (inactive); in experiment [14] it was 10.7 µM (inactive); in experiment [15] it was 45.4 µM (inactive); in [17], 22.6 µM (inactive); in experiment [18] it was 88.3 µM (inactive); in experiment [19], 18.2 µM (inactive).
Take `O=C1/C(=C/c2ccccc2O)N=C(c2ccccc2)N1C1Nc2cc3c(cc2S1)NC(N1C(=O)/C(=C/c2ccccc2O)N=C1c1ccccc1)S3` (configuration not stated): the GI50 in experiment [1] is 25.4 µM (inactive); in [2], 56.5 µM (inactive); in experiment [3], 39.7 µM (inactive); in experiment [20], 27.3 µM (inactive); in experiment [4], 28.9 µM (inactive); in experiment [5] it was 42.3 µM (inactive). In addition, the GI50 in experiment [6] was 14.2 µM (inactive); in [7] it was 29.9 µM (inactive); in experiment [8], 35.5 µM (inactive); in [9], > 100 µM (inactive); in experiment [10] it was 31.9 µM (inactive); in experiment [11], 55.1 µM (inactive). The GI50 was 60.5 µM (inactive) in experiment [12]; 30.7 µM (inactive) in [13]; 23.7 µM (inactive) in [14]; 42.1 µM (inactive) in [15]; 65.3 µM (inactive) in [16]; 29.7 µM (inactive) in [17]. In experiment [19], the GI50 is 18.3 µM (inactive).
For the compound `NC(CCCCN/C=C1/N=C(c2ccccc2)OC1=O)C(=O)O` (configuration not stated), the GI50 in experiment [1] was > 100 µM (inactive); in experiment [3], 52 µM (inactive); in experiment [20], > 100 µM (inactive); in experiment [4], > 100 µM (inactive); in [5], > 100 µM (inactive); in [6] it was > 100 µM (inactive). In addition, the GI50 in experiment [7] was 53.6 µM (inactive); in [8], > 100 µM (inactive); in experiment [9], > 100 µM (inactive); in [10], > 100 µM (inactive); in [11] it was > 100 µM (inactive); in [12], > 100 µM (inactive). Moreover, the GI50 in experiment [13], in experiment [14], in experiment [15], in experiment [16], in experiment [17] and in experiment [18] was > 100 µM (inactive) throughout. Besides, the GI50 in experiment [19] is > 100 µM (inactive).
Regarding `CN(C)CCNC(=O)c1c2ccccc2cc2ccccc12`, the GI50 in experiment [1] was 57 µM (inactive); in experiment [3], 31.1 µM (inactive); in [20], 26.8 µM (inactive); in experiment [4] it was 25.4 µM (inactive); in [5], 39.1 µM (inactive); in [6], 41 µM (inactive). Also, the GI50 in experiment [7] is 23.2 µM (inactive); in experiment [8], 3.99 µM (inactive); in [9], 12 µM (inactive); in experiment [10], 41.4 µM (inactive); in experiment [11], 93.8 µM (inactive); in experiment [12], 31 µM (inactive). For the same compound, the GI50 in [13] was 38.1 µM (inactive); in experiment [14] it was 25.3 µM (inactive); in experiment [15], 61.2 µM (inactive); in experiment [16] it was 25.5 µM (inactive); in experiment [17], 16.9 µM (inactive); in experiment [18] it was > 100 µM (inactive). In addition, the GI50 in experiment [19] was 0.473 µM (active).
In the case of `NNC(=O)C(=O)N/N=C(\CCC(=O)Nc1ccc(Cl)cc1)Cc1nc2ccccc2s1`, the GI50 in experiment [1] was 17.3 µM (inactive); in [2] it was 38.2 µM (inactive); in experiment [3], 3.32 µM (inactive); in experiment [20] it was 28.1 µM (inactive); in experiment [4], 4.34 µM (inactive); in experiment [5], 44.8 µM (inactive). Besides, the GI50 in [6] was 13.6 µM (inactive); in experiment [7] it was 18.9 µM (inactive); in experiment [8] it was 18.5 µM (inactive); in experiment [9], > 100 µM (inactive); in experiment [10], 30.9 µM (inactive); in experiment [11], 18.2 µM (inactive). Also, the GI50 was > 100 µM (inactive) in experiment [13]; 17.2 µM (inactive) in experiment [14]; 36.6 µM (inactive) in [15]; 71.8 µM (inactive) in experiment [16]; 21.8 µM (inactive) in experiment [17]; 30.5 µM (inactive) in experiment [18]. For the same compound, the GI50 in experiment [19] was 11.9 µM (inactive).
For `C=C1C(=O)CCC1C(=O)O` (configuration not stated), the GI50 in [1], in experiment [3], in experiment [20], in experiment [4], in [5] and in [6] was > 100 µM (inactive) each time. Further, the GI50 in experiment [7], in experiment [8], in experiment [9], in experiment [10], in experiment [11] and in experiment [12] was > 100 µM (inactive) each time. For the same compound, the GI50 in experiment [13], in [14], in experiment [15], in experiment [16], in experiment [17] and in experiment [18] was > 100 µM (inactive) in each case. In addition, in [19], the GI50 is > 100 µM (inactive).
